# Test results as given in ChEMBL document CHEMBL3352773, “Synthesis and evaluation of the 2,4-diaminoquinazoline series as anti-tubercular agents” (Bioorg Med Chem, 2014).
# Active and inactive are the calls of the source. The rule behind the calls is not given here.
# Legend:
# [1] = system: Mycobacterium tuberculosis; assay: Antituberculosis activity against Mycobacterium tuberculosis H37Rv assessed as complete growth inhibition at 20 uM after 5 days; assay type: functional; details: 120 h
# [2] = system: Mycobacterium tuberculosis; assay: Antituberculosis activity against Mycobacterium tuberculosis H37Rv assessed as complete growth inhibition after 5 days; assay type: functional; details: 120 h
# Rattus norvegicus [3] = assay: AUC in Sprague-Dawley rat at 10 mg/kg, po after 24 hrs; assay type: ADME, organism-based, Plasma; parameters: time < 24 hr, dose 10 mg/kg, route oral; details: in vivo
# [4] = Oral bioavailability in Sprague-Dawley rat at 10 mg/kg after 24 hrs; assay type: ADME, organism-based; details: in vivo
# [5] = system: Mycobacterium tuberculosis; assay: Antituberculosis activity against Mycobacterium tuberculosis H37Rv assessed as complete growth inhibition after 5 days using liquid media; assay type: functional; details: 120 h
# Rattus norvegicus [6] = assay: Volume of distribution at steady state in Sprague-Dawley rat at 10 mg/kg, po after 24 hrs; assay type: ADME, organism-based; parameters: dose 10 mg/kg, route oral; details: in vivo
# [7] = system: Mycobacterium tuberculosis; assay: Antituberculosis activity against Mycobacterium tuberculosis H37Rv assessed as complete growth inhibition after 5 days using solid media by serial proportion method; assay type: functional; details: 120 h
# [8] = system: Mycobacterium tuberculosis; assay: Antituberculosis activity against Mycobacterium tuberculosis H37Rv grown in solid media assessed as growth inhibition by serial proportion method; assay type: functional
# [9] = system: Mycobacterium tuberculosis; assay: Bactericidal activity against Mycobacterium tuberculosis H37Rv under non-replicating condition assessed as reduction in viability at 124 uM measured over 7 days by time kill kinetic study relative to control; assay type: functional
# [10] = system: Mycobacterium tuberculosis; assay: Antituberculosis activity against Mycobacterium tuberculosis H37Rv assessed as complete growth inhibition at 56 uM in presence of hemin; assay type: functional, organism-based
# [11] = system: Mycobacterium tuberculosis; assay: Antituberculosis activity against Mycobacterium tuberculosis H37Rv grown in liquid media using glucose as carbon source assessed as growth inhibition; assay type: functional
# [12] = system: Mycobacterium tuberculosis; assay: Antituberculosis activity against Mycobacterium tuberculosis H37Rv grown in liquid media using palmitate as carbon source assessed as growth inhibition; assay type: functional
# [13] = system: Mycobacterium tuberculosis; assay: Bactericidal activity against Mycobacterium tuberculosis H37Rv under aerobic and replicating condition assessed as reduction in viability at 124 uM measured over 7 days by time kill kinetic study relative to control; assay type: functional
# [14] = system: Mycobacterium tuberculosis; assay: Antituberculosis activity against Mycobacterium tuberculosis H37Rv assessed as complete growth inhibition at 56 uM in absence of hemin; assay type: functional, organism-based
Compound,inhibition at 20 µM [1] [%],MIC99 [2] [µM],also measured
COc1ccc2nc(N3CCCCC3)nc(NCc3ccc(F)cc3)c2c1,97,–,–
FC(F)(F)c1ccc(CCNc2nc(N3CCCCC3)nc3ccccc23)cc1,97,5.7,–
Nc1nc(NCc2ccc(F)cc2)c2ccccc2n1,< 30,93,–
Cc1ccc2nc(N3CCCCC3)nc(NCc3ccc(F)cc3)c2c1,99,–,–
COc1cc2nc(N3CCCCC3)nc(NCc3ccc(F)cc3)c2cc1OC,92,25,–
Clc1ccc(CNc2nc(N3CCCCC3)nc3ccccc23)cc1Cl,98,–,–
Fc1ccc(CNc2nc(N3CCCCC3)nc3[nH]cnc23)cc1,< 30,–,–
Fc1ccc(CNc2nc(N3CCCCC3)nc3ccsc23)cc1,< 30,292,–
Fc1ccc2c(c1)CCN(c1nc(N3CCCCC3)nc3ccccc13)C2,94,–,–
Fc1ccc(Cn2cnc3c(N4CCCCC4)nc4ccccc4c32)cc1,98,–,AUC (Rattus norvegicus [3]): 27.4 ng·h/mL; bioavailability [4]: 3.4%; MIC99 [5]: 13.8 µM; Vdss (Rattus norvegicus [6]): 14.2 L/kg; MIC99 [7]: 27.7 µM
Fc1ccc(CNc2cc(N3CCCCC3)nc3ccccc23)cc1,98,–,–
Cn1cnc2c(NCc3ccc(F)cc3)nc(N3CCCCC3)nc21,< 30,–,–
Fc1ccc(CNc2nc(N3CCCC3)nc3ccccc23)cc1,97,31,–
FC(F)(F)c1ccc(CNc2nc(N3CCCCC3)nc3ccccc23)cc1,99,6.6,MIC99 [8]: 16 µM; fold change (FC) [9]: 3; Activity [10]: Active; MIC99 [11]: 28 µM; MIC99 [12]: 28 µM; fold change (FC) [13]: 4; Activity [14]: Active
Fc1ccc(CNc2nc(-c3ccccc3)nc3ccccc23)cc1,< 30,76,–
CN(C)c1nc(NCc2ccc(F)cc2)c2ccccc2n1,40,34,–
Clc1ccc(Cl)c(CNc2nc(N3CCCCC3)nc3ccccc23)c1,97,–,–
O=C(O)CNC1CCN(c2nc(NCc3ccc(F)cc3)c3ccccc3n2)CC1,< 30,–,–
Fc1ccc(CNc2nc(N3CCCCC3)nc3cccnc23)cc1,< 30,37,–
Cc1cc(NCc2ccc(F)cc2)nc(N2CCCCC2)n1,< 30,83,–
CNC1CCN(c2nc(NCc3ccc(F)cc3)c3ccccc3n2)CC1,33,–,–
Fc1ccc(CNc2cc(N3CCCCC3)nc3ccnn23)cc1,< 30,–,–

Compound,inhibition at 20 µM [1] [%],MIC99 [2] [µM],also measured
Fc1ccc(CNc2nc(N3CCCCC3)nc3ccccc23)cc1F,96,–,–
O=C(O)CC1CCCCN1c1nc(NCc2ccc(F)cc2)c2ccccc2n1 (stereo not given),< 30,–,–
CNc1nc(NCc2ccc(F)cc2)c2ccccc2n1,44,35,–
Cc1ccc(CNc2nc(N3CCCCC3)nc3ccccc23)cc1,98,–,–
Nc1ccc(CNc2nc(N3CCCCC3)nc3ccccc23)cc1,< 30,–,–
COc1ccc2c(NCc3ccc(F)cc3)nc(N3CCCCC3)nc2c1,74,–,–
Fc1ccc(CSc2nc(N3CCCCC3)nc3ccccc23)cc1,< 30,282,–
Fc1ccc(CNc2nc(N3CCCCC3)nc3ccccc23)cc1,97,7.4,–
Fc1ccc(CNc2cc(Cc3ccccc3)nc(N3CCCCC3)n2)cc1,84,27,–
CNc1nc(N2CCCCC2)nc2ccccc12,< 30,206,–
CO[C@H]1/C=C/O[C@@]2(C)Oc3c(C)c(O)c4c(O)c(c(/C=N/N5CCN(C)CC5)c(O)c4c3C2=O)NC(=O)/C(C)=C\C=C\[C@H](C)[C@H](O)[C@@H](C)[C@@H](O)[C@@H](C)[C@H](OC(C)=O)[C@@H]1C [RIFAMPIN],100,–,MIC99 [5]: 0.004 µM; MIC99 [7]: 0.013 µM
O=[N+]([O-])c1cccc2c(NCc3ccc(F)cc3)nc(N3CCCCC3)nc12,< 30,–,–
COc1ccc(CNc2nc(N3CCCCC3)nc3ccccc23)cc1,97,–,–
CC1CC(C)CN(c2nc(NCc3ccc(F)cc3)c3ccccc3n2)C1 (stereo not given),< 30,–,–
Cc1nc(NCc2ccc(F)cc2)c2ccccc2n1,< 30,94,–
Fc1ccc(COc2nc(N3CCCCC3)nc3ccccc23)cc1,< 30,296,–
Fc1ccc(CNc2nc(CN3CCCCC3)nc3ccccc23)cc1,< 30,29,–
Fc1ccc(CNc2nc(N3CCCCC3)ncc2Cc2ccccc2)cc1,68,26,–
OC1CCN(c2nc(NCc3ccc(F)cc3)c3ccccc3n2)CC1,< 30,–,–
Fc1cccc(CNc2nc(N3CCCCC3)nc3ccccc23)c1,98,–,–
OCCN(CCO)c1nc(NCc2ccc(F)cc2)c2ccccc2n1,< 30,–,–
FC(F)(F)Oc1ccc(CNc2nc(N3CCCCC3)nc3ccccc23)cc1,95,–,–

Compound,inhibition at 20 µM [1] [%],MIC99 [2] [µM],also measured
Fc1ccc(CCc2nc(N3CCCCC3)nc3ccccc23)cc1,< 30,–,–
Fc1ccc(CNc2nc(C3CCCCC3)nc3ccccc23)cc1,47,15,–
Cc1cccc2nc(N3CCCCC3)nc(NCc3ccc(F)cc3)c12,98,–,–
Clc1ccc(CNc2nc(N3CCCCC3)nc3ccccc23)cc1,99,–,–
Fc1ccc(CNc2nc(N3CCCCC3)nc3ccc(Cl)cc23)cc1,49,–,–
Fc1ccc(CNc2nc(N3CCCCC3)nc3ncccc23)cc1,37,74,–
COc1ccc(CNc2nc(N3CCCCC3)nc3ccccc23)cc1Cl,98,–,–
Cn1ccc2c(NCc3ccc(F)cc3)nc(N3CCCCC3)nc21,< 30,–,–
Fc1ccc(CNc2ncnc3ccccc23)cc1,< 30,99,–
c1ccc2c(N3CCCCC3)nc(N3CCCCC3)nc2c1,< 30,–,–
Fc1ccc(CNc2nc(N3CCCCC3)nc3c(Cl)cccc23)cc1,< 30,–,–
O=C(O)C1CCN(c2nc(NCc3ccc(F)cc3)c3ccccc3n2)CC1,< 30,–,–
CN(C)C1CCN(c2nc(NCc3ccc(F)cc3)c3ccccc3n2)CC1,< 30,–,–
Ic1cccc(CNc2nc(N3CCCCC3)nc3ccccc23)c1,98,–,–
Fc1ccc(CNc2nc(N3CCCCC3)nc3ccccc23)c(F)c1,97,–,–
Cc1cnc(N2CCCCC2)nc1NCc1ccc(F)cc1,< 30,83,–
OCC1CCN(c2nc(NCc3ccc(F)cc3)c3ccccc3n2)CC1,< 30,–,–
NC1CCN(c2nc(NCc3ccc(F)cc3)c3ccccc3n2)CC1,< 30,–,–
c1ccc2c(NCC3CCCCC3)nc(N3CCCCC3)nc2c1,99,–,–
Fc1ccc(CNc2nc(N3CCNCC3)nc3ccccc23)cc1,< 30,148,–
Fc1ccc(CNc2cc(N3CCCCC3)nc3ncnn23)cc1,< 30,–,–
O=C(O)C(Nc1cc(N2CCCCC2)nc2ccccc12)c1ccc(F)cc1 (stereo not given),< 30,–,–

Compound,inhibition at 20 µM [1] [%],MIC99 [2] [µM],also measured
Fc1ccc(Nc2nc(N3CCCCC3)nc3ccccc23)cc1,< 30,39,–
Fc1ccc(CNc2nc(N3CCCCC3)nc3cc(Cl)ccc23)cc1,51,–,–
Cc1cccc(CNc2nc(N3CCCCC3)nc3ccccc23)c1,99,–,–
Fc1ccc(CNc2nc(N3CCCCC3)nc3[nH]ccc23)cc1,< 30,–,–
Fc1ccc(CNc2nc(N3Cc4ccccc4C3)nc3ccccc23)cc1,78,–,–
CC1CCN(c2nc(NCc3ccc(F)cc3)c3ccccc3n2)CC1,97,–,–
Fc1ccc(CNc2nc(N3CCCCC3)nc3cnccc23)cc1,59,30,–
OCC(Nc1cc(N2CCCCC2)nc2ccccc12)c1ccc(F)cc1 (stereo not given),55,–,–
Clc1ccc(CNc2nc(N3CCCCC3)nc3ccccc23)c(Cl)c1,98,–,–
Fc1ccc(CNc2nc(N3CCCCC3)nc3cccc(F)c23)cc1,< 30,–,–
c1ccc(CNc2nc(N3CCCCC3)nc3ccccc23)cc1,96,9.2,–
CC(C)CNc1nc(N2CCCCC2)nc2ccccc12,37,25,–
Nc1ccc(N2CCN(c3nc(NCc4ccc(F)cc4)c4ccccc4n3)CC2)cc1,94,–,–
Fc1ccc(CNc2nc(N3CCCCC3)nc3sccc23)cc1,–,73,–
Fc1ccccc1CNc1nc(N2CCCCC2)nc2ccccc12,97,–,–
Fc1ccc(CNc2nc(C(F)(F)F)nc3ccccc23)cc1,< 30,–,–
Cc1nc(N2CCCCC2)nc(NCc2ccc(F)cc2)c1C,< 30,–,–
c1ccc2c(CNc3nc(N4CCCCC4)nc4ccccc34)cccc2c1,97,–,–
c1ccc2nc(N3CCCCC3)ncc2c1,< 30,469,–
Fc1ccc(CNc2nc(N3CCCCC3)nc3cccc(Cl)c23)cc1,< 30,–,–
COc1cccc2c(NCc3ccc(F)cc3)nc(N3CCCCC3)nc12,83,–,–
